# Measurements as given in US4950818A, “Method for treating ulcer” (Kuraray Company, Ltd., priority 1988, dated 1990).
# Assays:
# [1] = tested on: HCl-ethanol-induced ulcer at the mucosa of the stomach; assay: Antiulcer activity (HCl-ethanol ulcer); assay type: in vivo, rats; details: rat, one hour before HCl-ethanol; for inhibition in vivo at 2.5 mg/kg: 2.5 mg/kg oral; for inhibition in vivo at 5 mg/kg: 5 mg/kg oral; for inhibition in vivo at 1 mg/kg: 1 mg/kg oral
# Method: 1.5 ml of aqueous 60% ethanol solution containing 150 mM hydrochloric acid was orally administered to rats. One hour thereafter the rats were sacrificed and the length (mm) of HCl-ethanol-induced ulcer which was generated at the mucosa of the stomach was measured. Sum of the length of ulcer per animal is defined as ulcer coefficient. Specimens were each orally administered one hour before the HCl-ethanol administration. Inhibition rate was calculated by dividing the difference of ulcer coefficients of the control group and the specimen-administered group by the ulcer coefficient of the control group.
# [2] = tested on: pylorus ligation ulcer at the proventriculus part; assay: Antiulcer activity (pylorus ligation ulcer); assay type: in vivo, rats; details: rat, 100 mg/kg oral, 30 minutes before pylorus ligation; 13 hours
# Method: After rats weighing 210 to 230 g were made to fast for 24 hours, each pylorus part was ligated under ether anesthesia according to Shay et al. method [Castroenterogy, 5, 43 (1945)]. After leaving for 13 hours the animals were sacrificed, and each ulcer which had been generated at the proventriculus part was macroscopicly observed and evaluated according to the following 5 steps of ulcer index:
# 2; There are hyperemia or 5 or less of small ulcers
# (diameter less than 3 mm).
# 3; There are 5 or more of small ulcers or one large
# ulcer (diameter equal to or more than 3 mm).
# 4; There are 2 or more of large ulcers.
# Compound (1) (specimen) as prepared according to the method in Reference example and spizofurone as a control specimen were orally administered 30 minutes before the pylorus ligation. Inhibition rate was calculated by dividing the difference of ulcer coefficients of the control group and the specimen-administered group by the ulcer coefficient of the control group.
# [3] = Acute toxicity (oral); details: mouse, in vivo, male ICR-strain mice
# Method: Acute toxicity tests through oral administration were carried out using male ICR-strain mice (5 weeks old).
compound,measurement,setting,value
COc1ccc(/C=C/C2=CC(=O)OC2O)cc1 (centres unmarked) [(5)],inhibition in vivo at 2.5 mg/kg,"[1]; 1 h, read-out: Inhibition rate",98.8%
N#Cc1ccc(/C=C/C2=CC(=O)OC2O)cc1 (centres unmarked) [(15)],inhibition in vivo at 5 mg/kg,"[1]; 1 h, read-out: Inhibition rate",99.4%
Cc1cc(C)c(/C=C/C2=CC(=O)OC2O)c(C)c1 (centres unmarked) [Compound (3)],inhibition in vivo at 5 mg/kg,"[1]; 1 h, read-out: Inhibition rate",100%
COc1cccc(/C=C/C2=CC(=O)OC2O)c1OC (centres unmarked) [(6)],inhibition in vivo at 1 mg/kg,"[1]; 1 h, read-out: Inhibition rate",59.8%
"CC(=O)CCC=C(C)CCC=C(C)CCC=C(C)CCC=C(C)C [Teprenone, reference compound]",inhibition in vivo at 25 mg/kg,"[1]; 1 h, 25 mg/kg oral, read-out: Inhibition rate",48.9%
O=C1C=C(/C=C/c2ccc([N+](=O)[O-])cc2)C(O)O1 (centres unmarked) [(13)],inhibition in vivo at 2.5 mg/kg,"[1]; 1 h, read-out: Inhibition rate",34.1%
"CC(=O)c1ccc2c(c1)C(=O)C1(CC1)O2 [Spizofurone, reference compound]",Inhibition rate,[2],1.5%
same,Inhibition rate,[1]; 100 mg/kg oral,86.6%
CCc1ccc(/C=C/C2=CC(=O)OC2O)cc1 (centres unmarked) [(4)],inhibition in vivo at 2.5 mg/kg,"[1]; 1 h, read-out: Inhibition rate",86.2%
O=C1C=C(/C=C/c2ccc(Cl)cc2)C(O)O1 (centres unmarked) [(10)],inhibition in vivo at 5 mg/kg,"[1]; 1 h, read-out: Inhibition rate",100%
O=C1C=C(/C=C/c2ccc(F)cc2)C(O)O1 (centres unmarked) [(9)],inhibition in vivo at 5 mg/kg,"[1]; 1 h, read-out: Inhibition rate",100%
O=C1C=C(/C=C/c2cccc(O)c2)C(O)O1 (centres unmarked) [(16)],inhibition in vivo at 2.5 mg/kg,"[1]; 1 h, read-out: Inhibition rate",42.7%
"O=C1C=C(/C=C/c2ccccc2)C(O)O1 (centres unmarked) [Compound (1), 5-hydroxy-4-[2-phenyl-(E)-ethenyl]-2(5H)-furanone]",Inhibition rate,[2],80.3%
same,inhibition in vivo at 5 mg/kg,"[1]; 1 h, read-out: Inhibition rate",97.9%
same,LD50,[3],≥ 2000 mg/kg
O=C1C=C(/C=C/c2c(F)c(F)c(F)c(F)c2F)C(O)O1 (centres unmarked) [(8)],inhibition in vivo at 1 mg/kg,"[1]; 1 h, read-out: Inhibition rate",67.4%
O=C1C=C(/C=C/c2cccc(Cl)c2)C(O)O1 (centres unmarked) [(11)],inhibition in vivo at 2.5 mg/kg,"[1]; 1 h, read-out: Inhibition rate",91%
COc1ccc(OC)c(/C=C/C2=CC(=O)OC2O)c1 (centres unmarked) [(7)],inhibition in vivo at 5 mg/kg,"[1]; 1 h, read-out: Inhibition rate",98.6%
O=C1C=C(/C=C/c2ccc(Cl)cc2Cl)C(O)O1 (centres unmarked) [(12)],inhibition in vivo at 5 mg/kg,"[1]; 1 h, read-out: Inhibition rate",54.1%
Cc1ccc(/C=C/C2=CC(=O)OC2O)cc1 (centres unmarked) [(2)],inhibition in vivo at 5 mg/kg,"[1]; 1 h, read-out: Inhibition rate",98.3%
